Experiments:
mitochondrial DNA [1] = assay: QPCR DNA damage assay, mtDNA, HUVEC; assay type: cell-based, human
Procedure: (§1) Human umbilical endothelial vein cells (HUVEC) and human aortic smooth muscle cells (HASMC) were maintained a t 37° C. and 5% CO2/95% air in Dulbecco's Modified Eagles Media (HASMC; Cell Gro) or M199 (HUVEC:Cell Gro) supplemented with 10% (HASMC) or 20% (HUVEC) heat inactivated fetal calf serum (Gibco/BRL), HEPES buffer (10 mM), glutamine, penicillin, and streptomycin. Flasks were routinely split every 3-4 days and disassociated for experiments using trypsin-EDTA (Gibco/BRL). Cells were treated with the various reactive oxygen species (controls mock treated with serum-free media) at 70-80% confluence, between passages 5-7.
Xanthine oxidase/lumazine and spermine NONOate were used as low dose O2^− and nitric oxide donors, respectively. SIN-1 (3-morpholinosydnonimine, hydrochloride, Molecular Probes) was used to generate higher, equimolar levels of nitric oxide and O2^−. Monolayer cultures in 60 mm plates (70%-80% confluent) were exposed to specific reactive oxygen species concentrations for dose response, and time-course experiments in serum-free, phenol red free minimum essential media (MEM) at 37° C. Control monolayers were mock-treated with serum-free and phenol red-free MEM alone. After treatment, cells were washed once with PBS and harvested immediately.
(§2) The QPCR assay measures the average degree of DNA damage per strand for the two template strands in the genomic segment of interest. […] Damage is assessed in the mitochondrial genome by amplifying a 16.2 kb product from the mitochondrial DNA template, and the nuclear genome by a 17.7 kb product from the β-globin gene cluster. […] Because differences in QPCR amplifications may at times be related to template copy number differences or simply due to the DNA quality unrelated to in vivo or in vitro mediated damage, a quantitative amplification of a small region is performed as a quality control (32). […]

[2] = system: mitochondrial protein synthesis; assay: Mitochondrial protein synthesis (35S-methionine incorporation), HUVEC; assay type: cell-based, human
Procedure: (§3) Human umbilical endothelial vein cells (HUVEC) and human aortic smooth muscle cells (HASMC) were maintained a t 37° C. and 5% CO2/95% air in Dulbecco's Modified Eagles Media (HASMC; Cell Gro) or M199 (HUVEC:Cell Gro) supplemented with 10% (HASMC) or 20% (HUVEC) heat inactivated fetal calf serum (Gibco/BRL), HEPES buffer (10 mM), glutamine, penicillin, and streptomycin. Flasks were routinely split every 3-4 days and disassociated for experiments using trypsin-EDTA (Gibco/BRL). Cells were treated with the various reactive oxygen species (controls mock treated with serum-free media) at 70-80% confluence, between passages 5-7. […] SIN-1 (3-morpholinosydnonimine, hydrochloride, Molecular Probes) was used to generate higher, equimolar levels of nitric oxide and O2^−. Monolayer cultures in 60 mm plates (70%-80% confluent) were exposed to specific reactive oxygen species concentrations for dose response, and time-course experiments in serum-free, phenol red free minimum essential media (MEM) at 37° C. Control monolayers were mock-treated with serum-free and phenol red-free MEM alone. After treatment, cells were washed once with PBS and harvested immediately. Methods for mitochondrial protein synthesis analyses have been described (37). […] Cells were trypsinized, and washed with PBS. […] Gels were dried onto Whatman filter paper, and exposed to Kodak XAR film at −80° C. The percent labeling of the translation products was determined by densitometry (Molecular Dynamics Densitometer SI) of all bands for untreated and treated samples. The sum of labeling of the bands for each sample was used to calculate the relative levels of incorporation. In regard to the quantitation of mitochondrial protein levels, any technique used to quantify mitochondrial protein synthesis levels would be applicable. Statistical analysis was performed using the independent Student's t test.

[3] = system: nDNA (β-globin gene cluster); assay: QPCR DNA damage assay, nDNA, HUVEC; assay type: cell-based, human; settings: 0.2 mM, time course 0-60 minutes
Procedure: as §1
(§4) Xanthine oxidase/lumazine and spermine NONOate were used as low dose O2^− and nitric oxide donors, respectively. […]
as §2

[4] = system: mitochondrial protein synthesis; assay: Mitochondrial protein synthesis (35S-methionine incorporation), HASMC; assay type: cell-based, human
Procedure: as §3

mitochondrial DNA [5] = assay: QPCR DNA damage assay, mtDNA, HASMC; assay type: cell-based, human; settings: 0.2 mM, time course 0-60 minutes
Procedure: as §1, §4, §2

HASMC = assay: Total ATP determination, HASMC; assay type: cell-based, human; settings: 1 hour
Procedure: (§5) Reduction of MTT at complex II was used to assess mitochondrial respiration (38-42). Cells were seeded in 96 well plates at a density of 8,000 cells/well and incubated at 37° C. […] Absorbance values were converted to MTT reduction using a standard curve generated with known numbers of viable cells. MTT reduction for treated samples was then normalized to non-treated control samples and is reported as a fraction of control. Total ATP levels were determined using an ATP determination kit (Molecular Probes, A-6608) and a MicroLumat Plus LB (EG&G Berthold) micro-injector luminometer. Briefly, this assay is based upon luciferin-luciferase bioluminescence (˜560 nm) in the presence of ATP. This assay is extremely sensitive; most luminometers can detect as little as 0.1 picomole of pre-existing ATP, or ATP as it is being formed in kinetic systems. Statistical analysis was performed using the independent Student's t test.

[6] = system: complex II, succinate dehydrogenase; assay: MTT reduction (mitochondrial respiration), HUVEC; assay type: cell-based, human; settings: 1 hour
Procedure: as §5

[7] = system: mitochondrial protein synthesis; assay: Mitochondrial protein synthesis, HUVEC and HASMC pooled statements; assay type: cell-based; settings: Homo sapiens; 0.1 mM, cell line not stated
Procedure: Human umbilical endothelial vein cells (HUVEC) and human aortic smooth muscle cells (HASMC) were maintained a t 37° C. and 5% CO2/95% air in Dulbecco's Modified Eagles Media (HASMC; Cell Gro) or M199 (HUVEC:Cell Gro) supplemented with 10% (HASMC) or 20% (HUVEC) heat inactivated fetal calf serum (Gibco/BRL), HEPES buffer (10 mM), glutamine, penicillin, and streptomycin. Flasks were routinely split every 3-4 days and disassociated for experiments using trypsin-EDTA (Gibco/BRL). Cells were treated with the various reactive oxygen species (controls mock treated with serum-free media) at 70-80% confluence, between passages 5-7. […] SIN-1 (3-morpholinosydnonimine, hydrochloride, Molecular Probes) was used to generate higher, equimolar levels of nitric oxide and O2^−. Monolayer cultures in 60 mm plates (70%-80% confluent) were exposed to specific reactive oxygen species concentrations for dose response, and time-course experiments in serum-free, phenol red free minimum essential media (MEM) at 37° C. […] The percent labeling of the translation products was determined by densitometry (Molecular Dynamics Densitometer SI) of all bands for untreated and treated samples. […] In regard to the quantitation of mitochondrial protein levels, any technique used to quantify mitochondrial protein synthesis levels would be applicable. […]

[8] = system: 16S rRNA, ND2 and Cyt b transcripts; assay: Northern transcript analysis, HUVEC; assay type: cell-based, human; settings: 0.5 mM, 60 min
Procedure: (§6) Human umbilical endothelial vein cells (HUVEC) and human aortic smooth muscle cells (HASMC) were maintained a t 37° C. and 5% CO2/95% air in Dulbecco's Modified Eagles Media (HASMC; Cell Gro) or M199 (HUVEC:Cell Gro) supplemented with 10% (HASMC) or 20% (HUVEC) heat inactivated fetal calf serum (Gibco/BRL), HEPES buffer (10 mM), glutamine, penicillin, and streptomycin. Flasks were routinely split every 3-4 days and disassociated for experiments using trypsin-EDTA (Gibco/BRL). Cells were treated with the various reactive oxygen species (controls mock treated with serum-free media) at 70-80% confluence, between passages 5-7. […] SIN-1 (3-morpholinosydnonimine, hydrochloride, Molecular Probes) was used to generate higher, equimolar levels of nitric oxide and O2^-. Monolayer cultures in 60 mm plates (70%-80% confluent) were exposed to specific reactive oxygen species concentrations for dose response, and time-course experiments in serum-free, phenol red free minimum essential media (MEM) at 37° C. Control monolayers were mock-treated with serum-free and phenol red-free MEM alone. […] Autoradiographs were scanned densitometrically (Molecular Dynamics Densitometer SI) and quantitated using IMAGEQUANT (Molecular Dynamics). In regard to the quantitation of mitochondrial transcript levels, any technique used to quantify mtRNA transcript levels would be applicable. […]

[9] = system: 16S rRNA, ND2 and Cyt b transcripts; assay: Northern transcript analysis, HASMC; assay type: cell-based, human; settings: 0.5 mM, 60 min
Procedure: as §6

[10] = system: complex II, succinate dehydrogenase; assay: MTT reduction (mitochondrial respiration), HASMC; assay type: cell-based, human; settings: 1 hour
Procedure: as §5

[11] = system: mitochondrial DNA encoded OXPHOS gene transcripts; β-actin; assay: Northern transcript analysis, HUVEC and HASMC pooled statements; assay type: cell-based, human; settings: peroxynitrite treatments
Procedure: as §6

HUVEC = assay: Total ATP determination, HUVEC; assay type: cell-based, human; settings: 1 hour
Procedure: as §5

recombinant human MnSOD = target: T1, recombinant human MnSOD (Homo sapiens, UniProt P04179); settings: cited from earlier work
T1 sequence (P04179 25-222): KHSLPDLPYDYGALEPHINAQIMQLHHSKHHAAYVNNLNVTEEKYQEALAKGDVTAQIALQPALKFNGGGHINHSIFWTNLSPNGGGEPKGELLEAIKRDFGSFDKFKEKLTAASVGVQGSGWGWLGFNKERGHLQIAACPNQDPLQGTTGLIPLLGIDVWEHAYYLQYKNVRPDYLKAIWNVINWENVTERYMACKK

[12] = Homo sapiens, 0.5 mM, read-out: protein labeling, % of control

OO [H2O2, hydrogen peroxide]
time at which significant mitochondrial DNA damage occurred (mitochondrial DNA [1]; HUVEC, 0.2 mM, time course 0-60 minutes): ≤ 10 min
35S-Methionine Incorporation Compared to Control ([2]; 0.2 mM): 77%
treatment time required before significant nDNA (β-globin) damage [3]: 60 min
35S-Methionine Incorporation Compared to Control ([4]; 0.2 mM): 67%
time at which significant mitochondrial DNA damage occurred (mitochondrial DNA [5]): ≤ 15 min

O=NOO [peroxynitrite]
total ATP (in words) (HASMC; 0.1 mM): did not result in a significant reduction
total ATP (in words) (HASMC; 0.5 mM, P=0.04): significant decreases
complex II reduction of MTT (mitochondrial respiration), in words ([6]; 0.1 mM): did not result in a significant decrease
complex II reduction of MTT (mitochondrial respiration), in words ([6]; 0.5 mM, P=0.02): significant decline
35S-Methionine Incorporation Compared to Control [2]: 45%
loss of mitochondrial protein synthesis compared to untreated cells ([2]; 0.5 mM): 55%
activity at 500 µM [2, 12]: 45%
35S-Methionine Incorporation Compared to Control [4]: 30%
35S-Methionine Incorporation Compared to Control ([4]; 0.1 mM): 88%
decrease in 35S-methionine incorporation ([4]; 0.1 mM): 12%
activity at 500 µM [4, 12]: 30%
inhibition at 100 µM [7]: 10%
decrease of 16S rRNA levels [8]: 26%
decrease in ND2 and Cyt b transcript levels [9]: 55%
reduction of 16S rRNA levels [9]: 14%
complex II reduction of MTT (mitochondrial respiration), in words ([10]; 0.1 mM): did not result in a significant decrease
complex II reduction of MTT (mitochondrial respiration), in words ([10]; 0.5 mM, P=0.008): significant decline
transcript levels of the nuclear β-actin gene [11]: unaffected
total ATP (in words) (HUVEC; 0.1 mM): did not result in a significant reduction
total ATP (in words) (HUVEC; 0.5 mM, P=0.02): significant decreases
inhibition of MnSOD enzymatic activity (recombinant human MnSOD): complete inhibition

NCCCNCCCCN(CCCN)/[N+]([O-])=N/O [spermine NONOate]
DNA damage (in words) (mitochondrial DNA [1]; sustained nitric oxide generation 0.5 mM/ml/min, cell line not named in the clause (HUVEC context)): did no t cause DNA damage

catalase
effect of pretreatment on O2^- induced mitochondrial DNA damage (mitochondrial DNA [1]; HUVEC, O2^- 2 mM/ml/minute): prevented
